Reference: paper PMC12735773, “Toward Brain NaV1.8 Imaging with [^11C]Suzetrigine” (Pharmaceuticals, 2025)

How the values were obtained:
NaV1.8 [1] = target: T1, NaV1.8 (Rattus norvegicus, UniProt Q62968); experiment: competition autoradiography, displacement of [^11C]suzetrigine on rat brain sections; settings: read-out: % reduction of binding at 2 μM
T1 construct: gene Scn10a; native protein in rat brain sections

NaV1.8 [2] = target: T1, NaV1.8; experiment: radioligand saturation binding autoradiography on rat brain sections, with homologous block

T1 sequence (Q62968 whole entry): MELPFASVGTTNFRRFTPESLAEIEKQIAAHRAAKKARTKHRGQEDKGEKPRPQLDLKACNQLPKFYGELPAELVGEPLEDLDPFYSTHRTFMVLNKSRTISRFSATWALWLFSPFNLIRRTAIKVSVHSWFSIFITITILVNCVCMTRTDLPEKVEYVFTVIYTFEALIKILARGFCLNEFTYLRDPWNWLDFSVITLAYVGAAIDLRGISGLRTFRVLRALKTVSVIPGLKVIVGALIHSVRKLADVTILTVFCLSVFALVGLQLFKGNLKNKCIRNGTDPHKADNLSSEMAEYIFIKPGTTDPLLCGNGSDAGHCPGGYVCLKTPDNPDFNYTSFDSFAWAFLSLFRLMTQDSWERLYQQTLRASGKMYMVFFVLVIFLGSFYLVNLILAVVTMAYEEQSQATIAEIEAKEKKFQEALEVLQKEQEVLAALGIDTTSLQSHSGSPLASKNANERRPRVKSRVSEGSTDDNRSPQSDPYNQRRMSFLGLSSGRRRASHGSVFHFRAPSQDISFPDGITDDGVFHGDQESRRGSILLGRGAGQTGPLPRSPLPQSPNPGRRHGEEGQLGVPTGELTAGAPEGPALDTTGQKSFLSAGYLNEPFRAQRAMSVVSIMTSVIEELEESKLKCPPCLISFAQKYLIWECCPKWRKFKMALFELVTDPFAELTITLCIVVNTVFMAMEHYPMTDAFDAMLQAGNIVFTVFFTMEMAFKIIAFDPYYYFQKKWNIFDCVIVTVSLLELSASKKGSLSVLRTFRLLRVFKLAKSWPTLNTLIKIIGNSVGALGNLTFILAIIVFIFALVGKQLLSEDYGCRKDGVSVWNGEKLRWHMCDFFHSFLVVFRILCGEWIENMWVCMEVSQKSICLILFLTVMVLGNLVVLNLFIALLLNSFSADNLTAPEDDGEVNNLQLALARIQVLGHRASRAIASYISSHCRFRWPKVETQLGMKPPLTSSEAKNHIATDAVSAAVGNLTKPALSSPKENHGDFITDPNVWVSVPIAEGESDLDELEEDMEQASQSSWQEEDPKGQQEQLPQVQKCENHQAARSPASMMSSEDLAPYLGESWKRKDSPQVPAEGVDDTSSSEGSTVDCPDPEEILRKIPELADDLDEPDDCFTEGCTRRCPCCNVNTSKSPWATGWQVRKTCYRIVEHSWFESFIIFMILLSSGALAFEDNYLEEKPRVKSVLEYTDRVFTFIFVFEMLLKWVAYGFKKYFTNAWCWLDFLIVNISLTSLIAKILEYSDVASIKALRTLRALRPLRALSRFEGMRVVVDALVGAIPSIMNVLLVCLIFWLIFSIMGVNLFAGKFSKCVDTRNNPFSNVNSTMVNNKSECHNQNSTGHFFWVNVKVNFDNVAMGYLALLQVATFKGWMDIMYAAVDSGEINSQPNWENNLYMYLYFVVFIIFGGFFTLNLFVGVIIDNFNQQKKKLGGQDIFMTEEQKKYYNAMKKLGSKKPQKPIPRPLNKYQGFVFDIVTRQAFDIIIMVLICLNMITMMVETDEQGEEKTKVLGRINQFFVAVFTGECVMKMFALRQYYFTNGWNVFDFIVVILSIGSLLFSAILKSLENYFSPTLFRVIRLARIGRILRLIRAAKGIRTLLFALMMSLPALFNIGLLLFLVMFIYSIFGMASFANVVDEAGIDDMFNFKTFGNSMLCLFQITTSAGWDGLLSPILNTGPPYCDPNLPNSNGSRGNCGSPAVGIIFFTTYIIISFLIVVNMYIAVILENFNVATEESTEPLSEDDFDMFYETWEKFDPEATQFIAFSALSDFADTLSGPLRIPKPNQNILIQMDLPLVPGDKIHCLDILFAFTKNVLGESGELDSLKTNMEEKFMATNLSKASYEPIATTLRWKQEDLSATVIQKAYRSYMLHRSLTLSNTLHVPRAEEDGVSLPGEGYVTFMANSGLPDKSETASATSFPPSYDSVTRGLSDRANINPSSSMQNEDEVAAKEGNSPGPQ

Q: For `COc1cc(NC(=O)c2ccc(-c3ccc(Cl)cc3)o2)cc(OC)c1` [A-803467], which inhibition at 2 µM (NaV1.8 [1]) is on record?
A: Its inhibition at 2 µM is roughly 50%.

Q: For `COc1c([C@H]2[C@H](C(=O)Nc3ccnc(C(N)=O)c3)O[C@@](C)(C(F)(F)F)[C@H]2C)ccc(F)c1F` [compound 2, suzetrigine], which Kd (NaV1.8 [2]) is on record?
A: The Kd was 0.1 nM.
